The EC50 is the concentration giving half of the maximal effect. As a reminder, the melting point is the temperature of the solid-liquid transition.

The subject of series [1] is human cells. Also noted: method as in PMID 27551444, PMID 28151659. Conditions: cited from earlier work.
Series [2] has as its system mouse and rat. The arrangement: method as in PMID 27551444, PMID 28151659. Conditions: cited from earlier work.
The test system of series [3] is B16-F10 or RFP-LL/2 cells. As to the kind of experiment: Proliferation rate and invasion ability without endothelial monolayer. In kind it is cell-based, mouse. The note with it: B16-F10 or RFP-LL/2, in vitro. The method, then:
Studies have shown that RIPK1 kinase activity is involved in the promotion of tumor metastasis through death receptor 6-dependent necroptosis of endothelial cells[22] or VEGF-dependent activation of vascular permeability. We thus evaluated the therapeutic effect of PK68 on lung metastasis of mouse melanoma B16-F10 cells in vivo. […] After 2 weeks, the metastasis of B16-F10 cells was measured by histological analysis and assessed as the number of metastasis nodules in the lung. […] Two weeks after intravenous injection of RFP-LL/2 cells, RFP^+ LL/2 cells were isolated from the tumor tissues by flow cytometer sorting and no signal of phosphorylated RIPK1 was detected in these tumors cells (Supplementary Fig. 22). Six hours after intravenous injection of RFP-LL/2 cells into C57BL/6 mice, the RFP-LL/2 cells have extravasated through blood vessels into the lung (Supplementary Fig. 23). […] Further, we evaluated the effect of PK68 on the tumor cell transmigration across the cultured endothelium. We isolated CD31^+ endothelial cells from the lungs and performed the transendothelial migration assay as previously reported. […]
(A-B) B16-F10 and RFP-LL/2 cells were pretreated with indicated compounds for 1h and then cell viability was measured by cell Titer-Glo. (C) B16-F10 and RFP-LL/2 cells were pre-treated with indicated compounds and invasion ability was measured by the transwell assay.

Series [4] concerns HT-29 cells. The series is described as follows: TNF-induced necroptosis (TNFα/Smac mimetic/z-VAD), cell viability by ATP levels. In kind it is cell-based, human. Conditions: Homo sapiens, HT-29, 48 h, T/S/Z 48 h, read-out: EC50(nM) HT-29. On the procedure: (§1) Necroptosis is tightly regulated by RIP kinases including RIPK1 and RIPK3. To develop new necroptosis inhibitors, we screened a small-molecule library of around 240 potential kinase inhibitors that were designed with novel structures to affect the ATP-binding pocket of protein kinases. Human colon cancer HT-29 cells were treated with these compounds for […], followed by treatment with necroptotic stimuli (TNFα, Smac mimetic, and z-VAD) that are known to activate TNF-mediated necroptosis. After 48 h, cell viability was analyzed by monitoring ATP levels.
(§2) Fig. 1 PK6 efficiently blocks TNF-α induced necroptosis in both human and mouse cells. a HT-29 cells cultured in 96-well plates were pretreated with the indicated compounds (10 μM) from a library consisting of ~240 compounds that we designed with novel structures for 1 h and subsequently treated with 40 ng/ml TNF-α (T), 100 nM Smac mimetic (S), and the caspase inhibitor 20 μM z-VAD(Z) for 48 h. Cell viability was assessed by measuring ATP levels. Data are represented as the mean ± standard deviation of duplicates. b Chemical structure of PK6. c Dose response curve and EC50 ± SD value for PK6 in TNF-α induced necroptosis in HT-29 cells. Cells were pretreated with indicated concentrations of PK6 for 1 h prior to the treatment with T (40 ng/ml), S (100 nM), and Z (20 μM) for 48 h. Cell viability was assessed by measuring ATP levels. d U937 cells were pretreated with indicated concentrations of PK6 for 1 h followed by the treatment with T (40 ng/ml), S (100 nM), and Z (20 μM) for 24 h. e MEF cells were pretreated with indicated concentrations of PK6 for 1 h followed by the treatment with T (40 ng/ml), S (100 nM), and Z (20 μM) for 24 h. f L929 cells were pretreated with indicated concentrations of PK6 for 1 h prior to the treatment with S (100 nM) and Z (20 μM) for 24 h.
(§3) Fig. 2 Chemical optimization of PK6 leads to improvements in anti-necroptotic activity. a, b The effects of the indicated compounds on cell viability were examined in HT-29 cells (a) and L929 cells (b). HT-29 cells were treated as indicate for 48 h and L929 cells for 24 h. Cell viability was assessed by measuring ATP levels. Data are represented as the mean ± standard deviation of triplicates. c Structure and EC50 ± SD value of each compound are shown in the table. EC50 values are the average of at least two independent determinations. d Lead optimization of PK6 TEXT PRINTED IN THE PICTURE: (c) PK6: EC50(nM) HT-29: 1200±53; EC50(nM) L929: 760±26 | (c) PK67: EC50(nM) HT-29: 250±6.3; EC50(nM) L929: 130±6.8 | (c) PK81: EC50(nM) HT-29: 120±7.6; EC50(nM) L929: 20±0.98 | (c) PK84: EC50(nM) HT-29: 97±6.7; EC50(nM) L929: 45±2.1 | (c) PK93: EC50(nM) HT-29: 130±36; EC50(nM) L929: 30±7.4 | (c) PK86: EC50(nM) HT-29: 73±3.9; EC50(nM) L929: 15±1.0 | (c) PK68: EC50(nM) HT-29: 23±1.4; EC50(nM) L929: 13±0.85
(§4) The cell viability was analyzed by using the CellTiter-Glo Luminescent Cell Viability Assay kit following the manufacturer’s instructions (Promega). Luminescence was measured with SpectraMax i3x (Molecular Devices).

For series [5], the system named is L929 cells. The series is described as follows: TNF-induced necroptosis, cell viability by ATP levels. The note with it: Mus musculus, L929, 24 h, read-out: EC50(nM) L929. The format is cell-based. The method, then: as §1, §2, §3, §4
For series [6], the system named is NIH3T3-RIPK3 cells. As to the kind of experiment: RIPK3 dimerization-induced necroptosis (AP20187). The format is cell-based, mouse. The note with it: AP20187 100 nM, 24 h. The method, then: (§5) Recombinant proteins were incubated with PK6 and PK68 as indicated. […] NIH3T3-RIPK3 cells were pretreated with indicated compounds for 1 h and subsequently treated with T (40 ng/ml)/S (100 nM)/Z (20 μM) or AP20187 (100 nM) for 24 h. Cell viability was determined by measuring ATP levels. e PK6 and PK68 have no effect on MLKL dimerization-induced cell death in HeLa-MLKL (1–190) cells that stably express MLKL (1–190aa) fused to DmrB. HeLa-MLKL (1–190) cells were pretreated with indicated compounds for 1 h and subsequently treated with AP20187 (100 nM) for 24 h. Cell viability was determined by measuring ATP levels.
(§6) Further, we evaluated the selectivity of PK68 against a panel of 369 kinases provided by Reaction Biology (at 1000 nM). […] In addition, we followed on some of the active “hits” from the kinome scan. PK68 was tested against TNIK and TRKA by a reputable CRO company. […] RIPK1 is known to mediate NF-κB activation independently of its kinase activity. […] It has been shown that homodimerization of RIPK3 or MLKL induced by the dimerizer leads to necroptosis bypassing the upstream signals[10],[37]. […] This dimerized RIPK3-induced necroptosis was blocked by RIPK3 inhibitor GSK873 but was not blocked by the RIPK1 inhibitor necrostatin-1. […] (Fig. 4e).
as §4

The subject of series [7] is HeLa-MLKL (1–190) cells. As to the kind of experiment: MLKL dimerization-induced cell death (AP20187). In kind it is cell-based, human. Conditions: AP20187 100 nM, 24 h. The method, then: as §5, §6, §4

Take `CC(C)(C)C(=O)N1N=CC[C@H]1c1ccccc1` [GSK963]: the “potency in human cells” value in series [1] is “extremely potent”. Moreover, the “cellular efficacy in mouse and rat” value in series [2] is given as “highly reduced cellular efficacy”.
Regarding `CN1C(=O)[C@@H](NC(=O)c2n[nH]c(Cc3ccccc3)n2)COc2ccccc21` [GSK2982772], the “potency in human cells” value in series [1] is listed as “extremely potent”. In series [2], the “cellular efficacy in mouse and rat” value is on record as “highly reduced cellular efficacy”.
`CN1C(=O)NC(Cc2c[nH]c3c(Cl)cccc23)C1=O` (stereo not drawn) [Nec-1s, 7-Cl-O-Nec-1, reference compound]: in series [3], the “proliferation rate and invasion ability” value is reported as “no obvious influence”.
On to `CC(=O)Nc1nc2ccc(-c3cnc(C)c(NC(=O)CC4CCCCC4)c3)cc2s1` [PK67, N-(5-(2-acetamidobenzo[d]thiazol-6-yl)-2-methylpyridin-3-yl)-2-cyclohexylacetamide], for which the EC50 was 250 nM in series [4] and 130 nM in series [5].
Turning to `CC(=O)Nc1nc2ccc(-c3cnc(C)c(NC(=O)OC4CCCC4)c3)cc2s1` [PK81, cyclopentyl (5-(2-acetamidobenzo[d]thiazol-6-yl)-2-methylpyridin-3-yl)carbamate], the melting point is 246 to 247 °C (dec.). Further, the EC50 in series [4] turned out to be 120 ± 7.6 nM. Moreover, in series [5], the EC50 was determined as 20 ± 0.98 nM.
For `CC(=O)Nc1cn2cc(-c3cnc(C)c(NC(=O)OC4CCCCC4)c3)ccc2n1` [PK84, cyclohexyl (5-(2-acetamidoimidazo[1,2-a]pyridin-6-yl)-2-methylpyridin-3-yl)carbamate], the melting point was 268 to 269 °C (dec.). In series [4], the EC50 worked out at 97 ± 6.7 nM. Also, the EC50 in series [5] was 45 ± 2.1 nM.
Taken in the same sequence, the figures for `CC(=O)Nc1nc2ccc(-c3cc(NC(=O)OC4CCCCC4)c(C)cn3)cc2s1` [PK86, cyclohexyl (2-(2-acetamidobenzo[d]thiazol-6-yl)-5-methylpyridin-4-yl)carbamate] were 227 to 228 °C, 73 ± 3.9 nM and 15 ± 1 nM.
As for `CC(=O)Nc1nc2ccc(-c3cnc(C)c(NC(=O)OC4CCCCC4)c3)nc2s1` [PK93, cyclohexyl (5-(2-acetamidothiazolo[5,4-b]pyridin-5-yl)-2-methylpyridin-3-yl)carbamate], the melting point was 230 to 231 °C (dec.). In addition, in series [4], the EC50 amounted to 130 ± 36 nM. Also, the EC50 in series [5] worked out at 30 ± 7.4 nM.
Take `CN1C(=O)C(Cc2c[nH]c3ccccc23)NC1=S` (stereo not drawn) [necrostatin-1, Necrostatin-1, reference compound]: in series [6], the RIPK3 dimerization-induced necroptosis entry is listed as “not blocked”.
Take `COc1nccnc1NS(=O)(=O)c1ccc(NC(=O)/C=C/c2ccc([N+](=O)[O-])s2)cc1` [necrosulfonamide, reference compound]: in series [7], the “polymerized MLKL-induced necroptosis” value is reported as “effectively suppressed”.

The values are drawn from publication PMC6591251, “Discovery of potent necroptosis inhibitors targeting RIPK1 kinase activity for the treatment of inflammatory disorder and cancer metastasis” (Cell Death & Disease, 2019).
